For experiment [1], the target named is T1, HDAC9 (Homo sapiens, UniProt Q9UKV0).
T1 construct: purchased BPS Biosciences
The experiment is described as follows: Individualized HDAC assay, HDAC9. As to conditions: purified enzyme, 5 to 0.02 μM. The experiment is classed as biochemical. As for the experimental part:
(§1) The activity of the curcuphenol analogues was assessed with purified HDAC enzymes from all classes I, II, and IV, as well as a select member of HDAC class III (SIRT1). HDACs 1-9 and SIRT1 were evaluated using HDAC Fluorogenic Assay Kits (BPS Biosciences). All assays were completed in black-sided clear-bottom 96 well plates (PerkinElmer), and all treatments were plated in triplicates. Treatment started at 5 μM and was two-fold diluted to a concentration 0.02 μM. The assays were measured using the Synergy HI hybrid reader (BioTek) and Gen5 software (BioTek), excitation was set to 360 nm and detection was measured at 450 nm with a gain of 100. Alternatively HDAC 10 and 11 (BPS Biosciences) were optimized for HDAC concentration using the HDAC-Glo™ I/II Assay and Screening System (Promega). Following optimization each HDAC was run following the Promega protocol in black-sided clear-bottomed 96 well plates in triplicates with same treatments listed above (PerkinElmer). Luminescence was read 30 minutes after HDAC-Glo™I/II reagent was added using the Synergy HI hybrid reader (BioTek) and Gen5 software (Bio-Tek). […] To calculate percent activity, the average of blank wells was subtracted from all treatment groups. The relative mean of activity of the HDAC being measured was determined and all wells that received treatment were divided this average, to give a percentage of activity.
To evaluate the effect of the compounds on specific HDACs, their activity was assessed with purified HDAC enzymes from all classes I, II, and IV, as well as a select member of HDAC class III (SIRT1). HDACs 1-9 and SIRT1 were evaluated using HDAC Fluorogenic Assay Kits (BPS Biosciences) following the manufacturer's recommendations. Compound treatment started at 5 μM and was two-fold diluted to a concentration 0.02 μM. […] The assays were measured using the Synergy HI hybrid reader (BioTek) and Gen5 software (Bio-Tek). […] To calculate the fold change in HDAC activity, the values from each treated well were divided by the relative mean of activity of the specific HDAC being measured.

The target of experiment [2] is T2, SIRT1 (Homo sapiens, UniProt Q96EB6).
T2 construct: purchased BPS Biosciences
T2 sequence (Q96EB6 1-747): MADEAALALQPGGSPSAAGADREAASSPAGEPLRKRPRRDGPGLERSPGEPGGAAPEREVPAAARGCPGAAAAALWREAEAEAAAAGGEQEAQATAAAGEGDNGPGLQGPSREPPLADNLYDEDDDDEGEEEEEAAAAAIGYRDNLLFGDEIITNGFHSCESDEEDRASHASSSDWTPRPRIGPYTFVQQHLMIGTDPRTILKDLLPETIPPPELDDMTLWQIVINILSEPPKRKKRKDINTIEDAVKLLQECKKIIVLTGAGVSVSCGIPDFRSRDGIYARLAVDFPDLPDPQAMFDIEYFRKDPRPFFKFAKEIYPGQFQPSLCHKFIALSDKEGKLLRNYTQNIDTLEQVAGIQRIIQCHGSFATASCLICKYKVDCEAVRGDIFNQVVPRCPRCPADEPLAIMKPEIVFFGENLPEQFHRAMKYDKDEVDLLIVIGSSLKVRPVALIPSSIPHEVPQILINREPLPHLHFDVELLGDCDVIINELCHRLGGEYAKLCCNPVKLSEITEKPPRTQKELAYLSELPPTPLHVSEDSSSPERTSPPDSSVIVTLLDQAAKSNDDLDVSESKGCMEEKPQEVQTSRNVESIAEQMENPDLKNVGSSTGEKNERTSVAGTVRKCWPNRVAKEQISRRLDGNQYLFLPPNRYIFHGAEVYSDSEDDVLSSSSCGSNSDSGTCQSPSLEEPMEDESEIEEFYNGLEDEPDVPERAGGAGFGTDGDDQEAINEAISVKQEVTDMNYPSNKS
Put plainly: Individualized HDAC assay, SIRT1. As to conditions: purified enzyme, 5 to 0.02 μM. The class given is biochemical. As for the experimental part:
as §1
To evaluate the effect of the compounds on specific HDACs, their activity was assessed with purified HDAC enzymes from all classes I, II, and IV, as well as a select member of HDAC class III (SIRT1). HDACs 1-9 and SIRT1 were evaluated using HDAC Fluorogenic Assay Kits (BPS Biosciences) following the manufacturer's recommendations. Compound treatment started at 5 μM and was two-fold diluted to a concentration 0.02 μM. Alternatively, HDAC 10 and 11 assays (BPS Biosciences) were optimized to be used with the HDAC-Glo™ I/II Assay and Screening System (Promega). The assays were measured using the Synergy HI hybrid reader (BioTek) and Gen5 software (Bio-Tek). […] To calculate the fold change in HDAC activity, the values from each treated well were divided by the relative mean of activity of the specific HDAC being measured.

Experiment [3] concerns class I/II HDACs. Put plainly: HDAC-Glo I/II Assay in A9 cells. The experiment is classed as cell-based, murine. The settings on record: for HDAC activity at the lowest concentrations: 1 nM-100 nM; for class I/II HDAC activity: 1 nM-1 μM; for HDAC activity at higher concentrations: up to 1 uM. On the procedure: Compounds P02-113 and P03-97-1 were analyzed for their effect on histone deacetylase activity in the A9 cell line, using the HDAC-Glo™ I/II Assay and Screening System (Promega). The linear range was established for the A9 cells in a black-walled, clear-bottomed 96 well plate (PerkinElmer). Cells were diluted to 10^5 cells/mL and serial diluted by two fold, to a final concentration of 98 cells/ml. All dilutions were plated in triplicates in a volume of 100 ul per well. Cells were left overnight at 37° C. for 24 hours before addition of HDAC class I/II reagent. Luminescence was read after 30 minute incubation with HDAC class I/II reagent. After determination of an optimal cell density of 30,000 cells/well, cells were plated in 96 well plate and left for 24 hours at 37° C. Media was used as a blank control, as well a positive control was included consisting of HeLa cells provided in the HDAC assay kit. […] HDAC class I/II reagent was then added and incubated for 30 minutes before luminescence was measured using the Infinite M200 (Tecan) and i-control software (Tecan).
HDAC assays. To assess the effect of the compounds on the relative activity of histone deacetylase (HDAC) class I and II enzymes in the A9 cell line, we used the HDAC-Glo™ I/II Assay and Screening System (Promega). The linear range was established for the A9 cells following the manufacturer's instructions. Thirty thousand cells per well were plated in clear-bottom 96-well plates (Perkin Elmer) and plates were incubated at 37° C. […] Cell culture media was used as a blank control and HeLa cells provided in the HDAC assay kit were used as a positive control. HDAC class I/II reagent was then added and incubated for 30 minutes before luminescence was measured using the Infinite M200 (Tecan) and i-control software (Tecan).

Molecules are shown by their SMILES. Entries after “also recorded” stand apart in the source; their conditions may differ.

T1 sequence (Q9UKV0 whole entry): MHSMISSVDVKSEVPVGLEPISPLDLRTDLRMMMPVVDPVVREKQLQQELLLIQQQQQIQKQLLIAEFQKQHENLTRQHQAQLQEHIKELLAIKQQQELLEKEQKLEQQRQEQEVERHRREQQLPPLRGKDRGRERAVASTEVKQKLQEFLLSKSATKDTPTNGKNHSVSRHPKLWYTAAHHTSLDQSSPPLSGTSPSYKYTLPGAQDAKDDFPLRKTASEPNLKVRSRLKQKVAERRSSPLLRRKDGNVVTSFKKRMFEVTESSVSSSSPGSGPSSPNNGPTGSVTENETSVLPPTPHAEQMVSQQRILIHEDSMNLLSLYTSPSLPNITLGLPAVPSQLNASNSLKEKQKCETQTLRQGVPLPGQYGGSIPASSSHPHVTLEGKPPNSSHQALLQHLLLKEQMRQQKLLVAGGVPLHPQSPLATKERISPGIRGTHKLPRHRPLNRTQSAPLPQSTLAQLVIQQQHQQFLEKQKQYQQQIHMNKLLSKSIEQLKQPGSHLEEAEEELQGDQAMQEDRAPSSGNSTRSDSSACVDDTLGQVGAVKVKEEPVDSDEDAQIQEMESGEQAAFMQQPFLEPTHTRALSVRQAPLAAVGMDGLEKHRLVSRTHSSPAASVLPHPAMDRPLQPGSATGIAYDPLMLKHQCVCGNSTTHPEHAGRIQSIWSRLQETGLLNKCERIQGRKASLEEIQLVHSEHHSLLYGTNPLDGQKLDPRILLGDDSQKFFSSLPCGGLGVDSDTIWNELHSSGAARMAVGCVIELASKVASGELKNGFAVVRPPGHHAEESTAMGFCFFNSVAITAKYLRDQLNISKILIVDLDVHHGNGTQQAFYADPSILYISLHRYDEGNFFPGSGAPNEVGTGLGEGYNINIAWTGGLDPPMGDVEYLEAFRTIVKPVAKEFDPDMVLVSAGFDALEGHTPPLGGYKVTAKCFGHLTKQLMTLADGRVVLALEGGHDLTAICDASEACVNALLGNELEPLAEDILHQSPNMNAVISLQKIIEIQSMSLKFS

For `CC(C)=CCCCc1ccc(C)cc1O` [P02-113], the HDAC9 activity entry in experiment [1] was “no change in activity; also recorded: did not affect the activity; also recorded: unaffected”. Moreover, the SIRT1 activity result in experiment [2] is reported as “did not demonstrate a change in activity; also recorded: no effect was observed; also recorded: no change in activity”. Further, in experiment [3], the “concentration of peak in HDAC activity” value is given as “around 180 nM”, the “HDAC activity at the lowest concentrations” value is reported as “induction of HDAC activity”, the “class I/II HDAC activity” value was “increase in class I/II HDAC activity” and the “HDAC activity at higher concentrations” value is given as “started to reduce it effect at higher concentrations; also recorded: started to reduce the effect at higher concentrations”.
For `COc1ccc(C(C)CCC=C(C)C)c(O)c1` (stereo not drawn) [P03-97-1], the HDAC9 activity entry in experiment [1] is on record as “no change in activity; also recorded: unaffected”; in experiment [1] (listed as PO-3-97-1) it was “did not affect the activity”. Further, the SIRT1 activity result in experiment [2] is reported as “did not demonstrate a change in activity”; in experiment [2] (listed as P03-7-1), “no change in activity”; in experiment [2] (listed as PO-3-97-1) it was “no effect was observed”. In addition, the “concentration of peak in HDAC activity” value in experiment [3] is “around 180 nM”. For the same molecule, the “HDAC activity at the lowest concentrations” value in experiment [3] is reported as “induction of HDAC activity”. Besides, in experiment [3], the “class I/II HDAC activity” value was “increase in class I/II HDAC activity”. The “HDAC activity at higher concentrations” value in experiment [3] was “maintained peak levels of HDAC activity”.

For the origin of these results see patent publication US20220105051A1, “COMPOUNDS FOR INCREASING MHC-I EXPRESSION AND MODULATING HISTONE DEACETYLASE ACTIVITY” (Cava Healthcare Inc., priority 2019, published 2022).
